In ChEMBL document CHEMBL5614367, “Hydroxamic acid hybrids: Histone deacetylase inhibitors with anticancer therapeutic potency” (Eur J Med Chem, 2023) one finds IC50 and GI50 data, which are given here for 9 compounds.

The structures appear in SMILES notation.

The target in data set [1] is T1, Protein deacetylase HDAC6 (Homo sapiens, UniProt Q9UBN7).
T1 sequence (Q9UBN7 whole entry): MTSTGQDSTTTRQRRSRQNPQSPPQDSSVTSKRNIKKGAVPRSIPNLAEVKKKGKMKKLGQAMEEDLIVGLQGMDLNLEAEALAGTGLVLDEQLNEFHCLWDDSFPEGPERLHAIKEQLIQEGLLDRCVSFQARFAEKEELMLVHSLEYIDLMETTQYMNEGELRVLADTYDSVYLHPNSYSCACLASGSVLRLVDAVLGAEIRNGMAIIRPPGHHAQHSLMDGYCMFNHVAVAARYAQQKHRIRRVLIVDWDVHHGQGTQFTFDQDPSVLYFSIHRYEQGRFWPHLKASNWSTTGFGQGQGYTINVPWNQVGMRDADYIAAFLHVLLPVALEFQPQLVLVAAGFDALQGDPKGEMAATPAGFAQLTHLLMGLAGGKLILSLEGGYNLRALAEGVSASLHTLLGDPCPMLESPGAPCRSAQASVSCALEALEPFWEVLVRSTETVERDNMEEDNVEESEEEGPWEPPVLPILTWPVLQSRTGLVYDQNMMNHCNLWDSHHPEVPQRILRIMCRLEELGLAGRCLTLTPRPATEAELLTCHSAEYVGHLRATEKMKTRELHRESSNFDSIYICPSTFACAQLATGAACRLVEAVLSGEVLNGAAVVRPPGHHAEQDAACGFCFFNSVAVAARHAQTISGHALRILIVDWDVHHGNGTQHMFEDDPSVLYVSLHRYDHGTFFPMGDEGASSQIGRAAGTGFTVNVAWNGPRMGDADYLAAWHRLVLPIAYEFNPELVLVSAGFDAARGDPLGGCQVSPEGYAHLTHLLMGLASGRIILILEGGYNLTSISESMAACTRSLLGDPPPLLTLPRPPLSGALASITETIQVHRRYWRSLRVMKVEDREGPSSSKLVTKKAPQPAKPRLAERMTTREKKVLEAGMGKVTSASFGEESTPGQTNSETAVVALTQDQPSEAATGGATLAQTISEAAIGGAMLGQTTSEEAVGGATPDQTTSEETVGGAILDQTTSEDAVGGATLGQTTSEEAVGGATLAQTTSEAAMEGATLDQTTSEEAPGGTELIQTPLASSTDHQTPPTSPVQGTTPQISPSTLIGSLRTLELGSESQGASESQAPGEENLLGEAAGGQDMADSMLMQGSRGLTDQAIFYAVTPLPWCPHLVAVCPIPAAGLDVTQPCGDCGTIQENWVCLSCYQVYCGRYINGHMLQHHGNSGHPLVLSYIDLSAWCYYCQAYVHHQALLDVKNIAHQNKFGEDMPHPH
The data set can be described thus: Inhibition of HDAC6 in human HeLa cells incubated for 72 hrs by ELISA. In kind it is cell-based.

For data set [2], the system named is MCF7. The data set can be described thus: Antiproliferative activity against human MCF7 cells assessed as cell growth inhibition by SRB assay. In kind it is functional.
Data set [3] concerns A549. The data set can be described thus: Antiproliferative activity against human A549 cells assessed as cell growth inhibition by SRB assay. In kind it is functional.
The subject of data set [4] is HeLa. In words: Antiproliferative activity against human HeLa cells assessed as cell growth inhibition by SRB assay. In kind it is functional.
For data set [5], the system named is K562. The data set can be described thus: Antiproliferative activity against human K562 cells assessed as cell growth inhibition by SRB assay. The data set is classed as functional.
Data set [6] has as its target Histone deacetylase 1 (Homo sapiens, UniProt Q13547). The data set can be described thus: Inhibition of HDAC1 in human HeLa cells incubated for 72 hrs by ELISA. In kind it is cell-based.
Data set [7] concerns MCF7. The data set can be described thus: cells. Particulars: Homo sapiens.
For data set [8], the system named is MDA-MB-231. In words: Antiproliferative activity against human MDA-MB-231 cells.
Data set [9] deals with A549. In words: Antiproliferative activity against human A549 cells.
The test system of data set [10] is HCT-116. In words: cells. Particulars: Homo sapiens.
Description: Antiproliferative activity against human HCT-116 cells
For data set [11], the system named is SGC-7901. In words: Antiproliferative activity against human SGC-7901 cells. The data set is classed as functional, cell-based.
Data set [12] has as its system HL-60. The data set can be described thus: Antiproliferative activity against human HL-60 cells. In kind it is functional, cell-based.
The test system of data set [13] is A-375. In words: Antiproliferative activity against human A-375 cells. In kind it is functional, cell-based.
Data set [14] addresses T1, Protein deacetylase HDAC6. The data set can be described thus: Inhibition of HDAC6 (unknown origin).
Data set [15] can be described thus: Cytotoxicity against human BEAS-2B cells. The data set is classed as toxicity, cell-based.
The nature of data set [16]: Cytotoxicity against human L02 cells. In kind it is toxicity, cell-based.
Data set [17] has as its target T1, Protein deacetylase HDAC6. In words: Inhibition of HDAC6 (unknown origin) incubated for 30 mins in presence of fluorimetric assay.
Data set [18] concerns SW-620. In words: Antiproliferative activity against human SW620 cells incubated for 48 hrs by colorimetric method. The data set is classed as functional, cell-based. Particulars: SW-620, 48 h.
Data set [19] relates to PC-3. The data set can be described thus: Antiproliferative activity against human PC-3 cells incubated for 48 hrs by colorimetric method. The data set is classed as functional, cell-based. To be noted: PC-3, 48 h.
The test system of data set [20] is NCI-H23. The data set can be described thus: Antiproliferative activity against human NCI-H23 cells incubated for 48 hrs by colorimetric method. In kind it is functional, cell-based. To be noted: NCI-H23, 48 h.
The subject of data set [21] is K562. In words: Cytotoxicity against human K562 cells assessed as reduction in cell viability incubated for 72 hrs by Cell-titer Glo based analysis. The data set is classed as functional. To be noted: K562, 72 h.
The subject of data set [22] is HL-60. In words: Cytotoxicity against human HL-60 cells assessed as reduction in cell viability incubated for 72 hrs by Cell-titer Glo based analysis. The data set is classed as functional. To be noted: HL-60, 72 h.
Data set [23] relates to HPBALL. In words: Cytotoxicity against human HPBALL cells assessed as reduction in cell viability incubated for 72 hrs by MTT assay. The data set is classed as functional, cell-based.
In data set [24] the test system is MOLM-13. In words: Antiproliferative activity against human MOLM-13 cells assessed as reduction in cell viability incubated for 72 hrs by MTT assay. To be noted: MOLM-13, 72 h. The data set is classed as functional, cell-based.
Data set [25] concerns Plasmodium falciparum. The data set can be described thus: Antiplasmodial activity against artemisinin-resistant Plasmodium falciparum Dd2 R539T assessed as reduction in parasite growth incubated for 3 days by ELISA analysis. The data set is classed as functional, organism-based. To be noted: 72 h.
Data set [26] relates to Plasmodium falciparum. The data set can be described thus: Antiplasmodial activity against Plasmodium falciparum 3D7 assessed as reduction in parasite growth incubated for 3 days by ELISA analysis. In kind it is functional, organism-based. To be noted: 3D7, 72 h.
For data set [27], the target named is T1, Protein deacetylase HDAC6. In words: Inhibition of human recombinant HDAC6 using ZMAL (Z-Lys(Ac)-AMC as fluorogenic substrate pre-incubated for 30 mins followed by substrate addition and measured for 1 hr by Fluorescence based analysis.
Data set [28] concerns Plasmodium falciparum. The data set can be described thus: Antiplasmodial activity against Plasmodium falciparum Dd2 assessed as reduction in parasite growth incubated for 3 days by ELISA analysis. The data set is classed as functional, organism-based. Particulars: Dd2, 72 h.
Data set [29] relates to HL-60. The data set can be described thus: Cytotoxicity against human HL-60 cells assessed as reduction in cell viability incubated for 72 hr by MTT assay. The data set is classed as functional, cell-based. Particulars: HL-60, 72 h.
Data set [30] deals with NALM-6. In words: Cytotoxicity against human NALM-6 cells assessed as reduction in cell viability incubated for 72 hrs by MTT assay. The data set is classed as functional, cell-based. Particulars: NALM-6, 72 h.
The subject of data set [31] is A549. The data set can be described thus: Antiproliferative activity against human A549 cells assessed as inhibition of cell growth incubated for 48 hrs by SRB assay. The data set is classed as functional, cell-based. Particulars: A549, 48 h.
In data set [32] the test system is HCT-116. The data set can be described thus: cells. The data set is classed as functional, cell-based. Particulars: Homo sapiens, HCT-116, 48 h.

Histone deacetylase 1, sequence (Q13547 whole entry): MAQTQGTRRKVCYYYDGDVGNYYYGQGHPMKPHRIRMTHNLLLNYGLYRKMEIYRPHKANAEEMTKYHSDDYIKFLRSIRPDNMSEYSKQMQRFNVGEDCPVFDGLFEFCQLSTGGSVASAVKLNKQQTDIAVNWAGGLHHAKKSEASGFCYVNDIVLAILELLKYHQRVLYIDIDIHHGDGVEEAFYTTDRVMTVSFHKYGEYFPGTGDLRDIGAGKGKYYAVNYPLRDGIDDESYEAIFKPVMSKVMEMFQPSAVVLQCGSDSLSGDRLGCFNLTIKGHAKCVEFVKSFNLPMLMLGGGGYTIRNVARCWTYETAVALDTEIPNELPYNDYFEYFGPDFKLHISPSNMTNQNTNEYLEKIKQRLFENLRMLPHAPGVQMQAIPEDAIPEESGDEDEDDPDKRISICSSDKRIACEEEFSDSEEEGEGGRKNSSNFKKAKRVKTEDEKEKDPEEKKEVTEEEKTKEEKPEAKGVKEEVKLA

Regarding `COc1ccc(-c2cn(CCCCCC(=O)NO)c(C)c2C(C)=O)cc1`, the IC50 in data set [1] and in data set [6] was 0.052 µM each time. The 50% growth inhibitory concentration (GI50) in data set [2], in data set [3], in data set [4] and in data set [5] was less than 10 µM each time.

Turning to `O=C(Cc1ccc(C(=O)NO)cc1)Nc1ccc2ncnc(Nc3ccc(I)cc3)c2c1`, the half-maximal inhibitory concentration (IC50) in data set [7], in data set [8], in [9], in data set [10], in [11] and in data set [12] was 2.2 µM throughout. The half-maximal inhibitory concentration (IC50) in data set [13] worked out at 2.2 µM; in data set [14], 16.3 µM.

For the compound `CCCOc1ccc2c(OCCCCCCCC(=O)NO)cc(=O)oc2c1`, the IC50 in [15] and in [16] was greater than 50 µM each time.

As for `Cc1ccc(Cn2cnc3cc(/C=C/C(=O)NO)ccc3c2=O)cc1`, the IC50 in data set [17] is 0.033 µM; in data set [18], 0.67 µM; in data set [19], 0.67 µM; in [20] it was 0.67 µM.

For the compound `C[C@@H]1CC[C@H]2[C@@H](C)C(SCCC(=O)NO)C[C@@H]3O[C@]4(C)CC[C@@H]1[C@]32OO4` (stereo partly drawn), the IC50 in [21] is 0.69 µM; in data set [22], 0.69 µM; in [23], 0.15 µM; in [24], 0.69 µM; in data set [25] it was 0.0019 µM; in [26] it was 0.0019 µM. Further, the IC50 in data set [27] is 0.045 µM; in data set [28], 0.0019 µM; in data set [29], 0.69 µM; in [30], 0.26 µM.

As to `COCCOc1ccc2c(OCCCCCCCC(=O)NO)cc(=O)oc2c1`, the IC50 in data set [15] and in data set [16] was greater than 50 µM throughout.

For the compound `O=C(NO)c1ccc(CNc2cccc3cc(-c4cccnc4)cnc23)cc1`, the IC50 in data set [31] and in data set [32] was 1.29 µM throughout.

As for `O=C(/C=C/c1ccc2c(=O)n(Cc3ccc(Cl)cc3)cnc2c1)NO`, the IC50 stood at 0.047 µM in data set [17], 0.67 µM in data set [18], 0.67 µM in [19] and 0.67 µM in data set [20].

Regarding `C[C@@H]1CC[C@H]2[C@@H](C)C(OCC(=O)NO)C[C@@H]3O[C@]4(C)CC[C@@H]1[C@]32OO4` (stereo partly drawn), the IC50 in data set [21] was 0.69 µM; in data set [22] it was 0.69 µM; in data set [23], 0.15 µM; in data set [24], 0.69 µM; in data set [25], 0.0019 µM; in data set [26], 0.0019 µM. The IC50 was determined as 0.187 µM in [27], 0.0019 µM in data set [28], 0.69 µM in data set [29] and 0.15 µM in [30].
